# In patent US20120316065A1, “SURFACTANT BLENDS FOR AUXIN ACTIVITY HERBICIDES” (AKZO NOBEL CHEMICALS INTERNATIONAL B.V., priority 2010, published 2012):
# System: alfalfa (Medicago sativa)
# Assay: Greenhouse herbicidal efficacy of 2,4-D amine tank-mixed with adjuvants, post-emergence spray
# Assay type: in vivo
# Conditions: 2,4-D DMA 0.125 lb/A, adjuvant 0.25% wt (0 for None), scale 0% no damage to 100% complete damage
# Description: The surfactant blends described in Table 1 were applied by the tank mix method together with 2,4-D amine salt (465 g/l). The application rate per ha was 0.1250 lb 2,4-D amine salt ai/A and 0.25% of surfactant blends according to the invention or 0.25% comparative adjuvant Activator 90 (alkylphenol ethoxylate, alcohol ethoxylate and tall oil fatty acid, (Loveland). The herbicidal effect was assessed in a greenhouse environment after 1, 2, 3, and 4 weeks. The test plant used was alfalfa (Medicago sativa).
# The plants were sown directly to the pot. When the active ingredient was applied, the plants were 20-30 cm in height. The test containers used were plastic pots containing potting mixture. The solutions were applied by the tank mix method by spray application post-emergence in an automated spray cabinet with a water application rate of 200 liters per hectare. Evaluation was carried out using a scale of from 0% to 100%. 0% means no damage, 100% means complete damage. The results of the assessment are compiled in tables 2 and which follow.
compound,measurement,setting,value
"O=C(O)COc1ccc(Cl)cc1Cl [2,4-D DMA, 2-(2,4-dichlorophenoxy) acetic acid]",Alfalfa (1WAT) % control,1 week after treatment,10.0%
same,Alfalfa (2WAT) % control,2 weeks after treatment,20.0%
same,Alfalfa (3WAT) % control,3 weeks after treatment,20.0%
same,Alfalfa (4WAT) % control,4 weeks after treatment,37.5%
